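Where inhibition never reached the appropriate level, the endpoint shown equals the highest concentration tested. Otherwise, values were interpolated linearly from a five-concentration, 48-hour dose response in 96-well plates. The concentration for full growth arrest is given as TGI.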
Columns and labels:
Experiment in all cases: NCI anticancer screen, dose series, 48 h
[1] = tested on: DMS 114 small cell lung
[2] = tested on: DMS 273 small cell lung
[3] = tested on: HCT-116 colon
[4] = tested on: LOX IMVI melanoma
[5] = tested on: NCI-H23 lung
[6] = tested on: NCI-H460 lung
[7] = tested on: OVCAR-3 ovarian
[8] = tested on: SK-OV-3 ovarian
[9] = tested on: UACC-62 melanoma
[10] = tested on: NCI-H226 lung

SMILES | TGI [1] [µM] | TGI [2] [µM] | TGI [3] [µM] | TGI [4] [µM] | TGI [5] [µM] | TGI [6] [µM] | TGI [7] [µM] | TGI [8] [µM] | TGI [9] [µM] | TGI [10] [µM]
C/C(=N\NC(N)=S)c1ccc(Oc2ccccc2)cc1 | 17.9 | 20.7 | 22.6 | 34.5 | 83.3 | 42.6 | 22.9 | 36.3 | 28.8 | 
CC[C@H]1CNC(=O)CC1CC(=O)OC (stereo partly drawn) | > 100 | > 100 | > 100 | > 100 | > 100 | > 100 |  | > 100 | > 100 | > 100
CS(=O)c1cc(=O)c2ccccc2s1 (stereo not drawn) | 9.87 | 19.5 | 5.11 | 9.02 | 15.4 | 35 | 4.47 | 39.4 | 17.6 | 35.5
O=P(c1ccccc1)(c1ccccc1)C1CC=C2CCCCCC2C1 (stereo not drawn) | 68.2 | 64.5 | 40.3 | 65 | > 100 | > 100 | 50 | 85.9 | 69.6 | 81.1
O=C(c1ccccc1)N1CCc2c([nH]c3ccccc23)C1 | 65.1 | > 100 | > 100 | > 100 | > 100 | > 100 | > 100 | > 100 | > 100 | > 100
O=C1N(c2ccccc2)C2(O)C(=O)c3ccccc3C2(O)N1c1ccccc1 (stereo not drawn) | > 100 | > 100 | > 100 | > 100 | > 100 | > 100 | > 100 | > 100 | > 100 | > 100
COc1cc(Br)c(C2OCCCO2)cc1OCc1ccccc1 | > 100 | > 100 | > 100 | > 100 | > 100 | > 100 | > 100 | > 100 | > 100 | > 100
CCc1cccc(CC)c1NC1=CC(=O)C(=O)c2ccccc21 | 27.6 | 41.6 | 34.8 | 29.3 | 3.02 | 48.8 | 8.39 | 89.5 | 30.1 | 88.5
Cc1cc(Br)ccc1N=NC1C(=O)ON=C1c1ccccc1 (stereo not drawn) | > 100 | > 100 | > 100 | > 100 | > 100 | > 100 | > 100 | > 100 | > 100 | > 100
O=c1ccn([C@@H]2C[C@H](CO)CS(=O)C2)c(=O)[nH]1 (stereo partly drawn) | > 100 | > 100 | > 100 | > 100 | > 100 | > 100 | > 100 | > 100 | > 100 | > 100
N#CC1(C2CC(=O)N(c3ccccc3)C2=O)CCCCC1=O (stereo not drawn) | > 100 | > 100 |  | > 100 | > 100 | > 100 | > 100 | > 100 | > 100 | > 100
O=C(Nc1cc(Cl)ccc1Cl)c1cc2ccccc2oc1=O | > 100 | > 100 | > 100 | > 100 | > 100 | > 100 | > 100 | > 100 | > 100 | 
Cc1nc2ccccc2c(=O)n1/N=C(\N=Nc1ccc(Cl)cc1)c1ccc(N(C)C)cc1 | > 100 | > 100 | > 100 | > 100 | > 100 | > 100 |  | > 100 | > 100 | 
CC1(C)OC2OC(/C=C/[N+](=O)[O-])C3OC(C)(C)OC3C2O1 (stereo not drawn) | 34.5 | 40.4 | 23 | 22.1 | 37.6 | 32.4 | 34.7 | 34.8 | 28.6 | 37.1
C=CC(C)(C)[C@@]12CC3C(=O)N[C@@H](Cc4ccccc4)C(=O)N3[C@@H]1N(C(C)=O)c1ccccc12 (stereo partly drawn) | > 100 | > 100 | > 100 | > 100 | > 100 | > 100 | > 100 | > 100 | > 100 | > 100
CC(=O)NNc1nc(C)c(C(=O)NNC(=O)C(=O)Nc2ccc(C)cc2[N+](=O)[O-])s1 | > 100 | > 100 | > 100 | > 100 | > 100 | > 100 | > 100 | > 100 | > 100 | > 100
COc1cc(CC2c3cc(OC)c(OC)cc3CCN2C)c(C(=O)O)cc1OC (stereo not drawn) | > 100 | > 100 | > 100 | > 100 | > 100 |  | > 100 | > 100 | > 100 | > 100
